Results as given in patent publication US20250215012A1, “IKZF2 DEGRADERS AND USES THEREOF” (REGENTS OF THE UNIVERSITY OF MICHIGAN, priority 2022, published 2025).

Target: IKZF2 (Homo sapiens (Human), UniProt Q96SW2+Q9UKS7)
Test: IKZF2 HiBiT Assay (Jurkat-IKZF2-HiBiT cell line)
Format: cell-based
Settings: Jurkat-IKZF2-HiBiT cells, 24 hours; for DC50: read-out: HiBit assay degradation analysis DC50; for Dmax: read-out: HiBit assay degradation analysis Dmax
In short: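 Jurkat cells carrying HiBiT-tagged IKZF2 were exposed to serially diluted compound for 24 h at 37 °C. Remaining IKZF2 was measured by Nano-Glo HiBiT lytic luminescence after 10-20 min at room temperature. Signal was normalized to DMSO, and IC50 came from a four-parameter variable-slope fit.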

Chain of IKZF2 (Q9UKS7 whole entry): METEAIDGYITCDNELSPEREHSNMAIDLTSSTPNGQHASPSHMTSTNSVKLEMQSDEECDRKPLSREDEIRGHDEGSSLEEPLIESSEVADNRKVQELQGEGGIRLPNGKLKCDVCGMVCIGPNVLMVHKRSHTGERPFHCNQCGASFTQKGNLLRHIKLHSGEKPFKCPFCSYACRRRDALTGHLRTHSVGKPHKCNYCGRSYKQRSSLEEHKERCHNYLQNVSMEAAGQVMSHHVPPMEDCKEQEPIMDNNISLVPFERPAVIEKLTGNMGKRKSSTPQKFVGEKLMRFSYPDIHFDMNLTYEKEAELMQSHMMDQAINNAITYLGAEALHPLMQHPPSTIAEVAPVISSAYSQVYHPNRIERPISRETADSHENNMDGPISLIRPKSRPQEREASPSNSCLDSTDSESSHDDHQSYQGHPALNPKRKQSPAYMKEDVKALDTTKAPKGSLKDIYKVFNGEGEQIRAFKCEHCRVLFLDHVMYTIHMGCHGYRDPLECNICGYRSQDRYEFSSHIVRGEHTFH
Chain of IKZF2 (Q96SW2 whole entry): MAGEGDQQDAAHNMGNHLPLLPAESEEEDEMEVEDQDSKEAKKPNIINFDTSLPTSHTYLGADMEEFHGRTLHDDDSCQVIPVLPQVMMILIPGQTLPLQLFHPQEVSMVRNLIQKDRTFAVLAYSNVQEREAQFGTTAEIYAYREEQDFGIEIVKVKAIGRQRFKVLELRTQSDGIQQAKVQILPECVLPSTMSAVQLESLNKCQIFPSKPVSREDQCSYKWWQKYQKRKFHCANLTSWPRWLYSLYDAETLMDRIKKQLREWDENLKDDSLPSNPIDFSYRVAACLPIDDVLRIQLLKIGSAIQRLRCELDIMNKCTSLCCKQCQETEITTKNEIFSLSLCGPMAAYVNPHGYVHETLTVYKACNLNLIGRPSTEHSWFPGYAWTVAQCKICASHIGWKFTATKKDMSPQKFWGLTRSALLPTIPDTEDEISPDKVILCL
Chain of IKZF2 (Q16531 whole entry partner): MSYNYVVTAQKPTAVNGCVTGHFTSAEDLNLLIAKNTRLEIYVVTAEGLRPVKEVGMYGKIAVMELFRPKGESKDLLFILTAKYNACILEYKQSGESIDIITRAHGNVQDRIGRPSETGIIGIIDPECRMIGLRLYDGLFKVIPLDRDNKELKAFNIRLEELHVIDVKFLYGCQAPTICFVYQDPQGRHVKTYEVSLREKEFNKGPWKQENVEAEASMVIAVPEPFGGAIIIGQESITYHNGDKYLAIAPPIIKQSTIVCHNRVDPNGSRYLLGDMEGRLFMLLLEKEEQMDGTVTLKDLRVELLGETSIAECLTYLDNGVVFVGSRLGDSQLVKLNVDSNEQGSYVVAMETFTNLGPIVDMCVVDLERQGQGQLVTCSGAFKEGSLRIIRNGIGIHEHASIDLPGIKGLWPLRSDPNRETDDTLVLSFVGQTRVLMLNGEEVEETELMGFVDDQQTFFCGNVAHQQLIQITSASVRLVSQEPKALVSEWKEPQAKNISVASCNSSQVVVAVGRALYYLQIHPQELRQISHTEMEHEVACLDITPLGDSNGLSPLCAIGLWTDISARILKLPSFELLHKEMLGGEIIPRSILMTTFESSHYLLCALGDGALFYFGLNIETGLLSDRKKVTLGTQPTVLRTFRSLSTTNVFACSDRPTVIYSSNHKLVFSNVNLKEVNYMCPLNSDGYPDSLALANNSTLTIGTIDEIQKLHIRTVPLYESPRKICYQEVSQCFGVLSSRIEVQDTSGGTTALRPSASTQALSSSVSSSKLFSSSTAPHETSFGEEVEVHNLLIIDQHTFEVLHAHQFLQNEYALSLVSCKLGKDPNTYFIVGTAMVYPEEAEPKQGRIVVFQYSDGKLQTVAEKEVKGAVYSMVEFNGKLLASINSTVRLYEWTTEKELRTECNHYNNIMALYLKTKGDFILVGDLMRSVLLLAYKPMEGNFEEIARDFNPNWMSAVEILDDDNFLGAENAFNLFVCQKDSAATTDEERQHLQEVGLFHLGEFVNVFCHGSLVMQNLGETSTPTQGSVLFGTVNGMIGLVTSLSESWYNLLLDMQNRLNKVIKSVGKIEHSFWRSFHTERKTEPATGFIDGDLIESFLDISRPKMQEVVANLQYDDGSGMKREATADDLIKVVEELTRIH

Compound	DC50	Dmax
Cc1cccc(CN2CCC3(CC2)COc2c3ccc3c2CN(C2CCC(=O)NC2=O)C3=O)c1 (stereo not drawn) [Compound A213, 3-(1′-(3-methylbenzyl)-6-oxo-6,8-dihydro-2H,7H-spiro[furo[2,3-e]isoindole-3,4′-piperidin]-7-yl)piperidine-2,6-dione]	< 50 nM	60 to 80%
O=C1CCC(N2Cc3c(ccc4c3OCC43CCN(Cc4cccc5[nH]cnc45)CC3)C2=O)C(=O)N1 (stereo not drawn) [Compound A71, 3-(1′-((1H-benzo[d]imidazol-4-yl)methyl)-6-oxo-6,8-dihydro-2H,7H-spiro[furo[2,3-e]isoindole-3,4′-piperidin]-7-yl)piperidine-2,6-dione]	> 500 nM	40 to 60%
O=C1CCC(N2Cc3c(ccc4c3OCC43CCN(Cc4cnn(S(=O)(=O)c5ccccc5F)c4)CC3)C2=O)C(=O)N1 (stereo not drawn) [Compound A337, 3-(1′-((1-((2-fluorophenyl)sulfonyl)-1H-pyrazol-4-yl)methyl)-6-oxo-6,8-dihydro-2H,7H-spiro[furo[2,3-e]isoindole-3,4′-piperidin]-7-yl)piperidine-2,6-dione]	50 to 200 nM	60 to 80%
COc1cc(CN2CCC3(CC2)COc2c3ccc3c2CN([C@H]2CCC(=O)NC2=O)C3=O)cc(-c2cnn(C3COC3)c2)c1 [Compound A277]	< 50 nM	> 80%
O=C1CCC(N2Cc3c(ccc4c3OCC43CCN(Cc4cnn(Cc5cccc(Cl)c5)c4)CC3)C2=O)C(=O)N1 (stereo not drawn) [Compound A242, 3-(1′-((1-(3-chlorobenzyl)-1H-pyrazol-4-yl)methyl)-6-oxo-6,8-dihydro-2H,7H-spiro[furo[2,3-e]isoindole-3,4′-piperidin]-7-yl) piperidine-2,6-dione]	< 50 nM	60 to 80%
O=C1CCC(N2Cc3c(ccc4c3OCC43CCN(Cc4ccc(OCc5ccccc5)nc4)CC3)C2=O)C(=O)N1 (stereo not drawn) [Compound A339, 3-(1′-((6-(benzyloxy)pyridin-3-yl)methyl)-6-oxo-6,8-dihydro-2H,7H-spiro[furo[2,3-e]isoindole-3,4′-piperidin]-7-yl)piperidine-2,6-dione]	> 500 nM	40 to 60%
O=C1CCC(N2Cc3c(ccc4c3OCC43CCN(Cc4ccc5nccnc5c4)CC3)C2=O)C(=O)N1 (stereo not drawn) [Compound A48, 3-(6-oxo-1′-(quinoxalin-6-ylmethyl)-6,8-dihydro-2H,7H-spiro[furo[2,3-e]isoindole-3,4′-piperidin]-7-yl)piperidine-2,6-dione]	> 500 nM	< 40%
O=C1CCC(N2Cc3c(ccc4c3OCCC43CCN(Cc4ccc(C(F)F)cc4)CC3)C2=O)C(=O)N1 (stereo not drawn) [Compound A9, 3-(1-(4-(difluoromethyl)benzyl)-7′-oxo-2′,3′,7′,9′-tetrahydro-8′H-spiro[piperidine-4,4′-pyrano[2,3-e]isoindol]-8′-yl)piperidine-2,6-dione]	> 500 nM	< 40%
CC(=O)Nc1cccc(CN2CCC3(CC2)COc2c3ccc3c2CN(C2CCC(=O)NC2=O)C3=O)c1 (stereo not drawn) [Compound A176, N-(3-((7-(2,6-dioxopiperidin-3-yl)-6-oxo-7,8-dihydro-2H,6H-spiro[furo[2,3-e]isoindole-3,4′-piperidin]-1′-yl)methyl)phenyl) acetamide]	> 500 nM	40 to 60%
Cn1ccc2c(CN3CCC4(CC3)COc3c4ccc4c3CN(C3CCC(=O)NC3=O)C4=O)cccc21 (stereo not drawn) [Compound A109, 3-(1′-((1-methyl-1H-indol-4-yl)methyl)-6-oxo-6,8-dihydro-2H,7H-spiro[furo[2,3-e]isoindole-3,4′-piperidin]-7-yl)piperidine-2,6-dione]	< 50 nM	60 to 80%
O=C1CC[C@H](N2Cc3c(ccc4c3OCC43CCN(Cc4cccc(-c5cnn(C6CC6)c5)c4)CC3)C2=O)C(=O)N1 [Compound A268, (S)-3-(1′-(3-(1-cyclopropyl-1H-pyrazol-4-yl)benzyl)-6-oxo-6,8-dihydro-2H,7H-spiro[furo[2,3-e]isoindole-3,4′-piperidin]-7-yl)piperidine-2,6-dione]	< 50 nM	60 to 80%
COc1ccc(C(=O)Nc2cccc(CN3CCC4(CC3)OCc3c4ccc4c3CN(C3CCC(=O)NC3=O)C4=O)c2)cc1 (stereo not drawn) [Compound A262]	< 50 nM	60 to 80%
O=C1CCC(N2Cc3c(ccc4c3OCC43CCN(Cc4ccnc5[nH]ccc45)CC3)C2=O)C(=O)N1 (stereo not drawn) [Compound A73, 3-(1′-((1H-pyrrolo[2,3-b]pyridin-4-yl)methyl)-6-oxo-6,8-dihydro-2H,7H-spiro[furo[2,3-e]isoindole-3,4′-piperidin]-7-yl)piperidine-2,6-dione]	> 500 nM	40 to 60%
CS(=O)(=O)c1cccc(CN2CCC3(CC2)COc2c3ccc3c2CN(C2CCC(=O)NC2=O)C3=O)c1 (stereo not drawn) [Compound A235, 3-(1′-(3-(methylsulfonyl)benzyl)-6-oxo-6,8-dihydro-2H,7H-spiro[furo[2,3-e]isoindole-3,4′-piperidin]-7-yl)piperidine-2,6-dione]	> 500 nM	< 40%
O=C1CCC(N2Cc3c(ccc4c3OCC43CCN(Cc4ncccn4)CC3)C2=O)C(=O)N1 (stereo not drawn) [Compound A206, 3-(6-oxo-1′-(pyrimidin-2-ylmethyl)-6,8-dihydro-2H,7H-spiro[furo[2,3-e]isoindole-3,4′-piperidin]-7-yl)piperidine-2,6-dione]	> 500 nM	< 40%
Cc1nn(C)cc1-c1cccc(CN2CCC3(CC2)COc2c3ccc3c2CN([C@H]2CCC(=O)NC2=O)C3=O)c1 [Compound A283, (S)-3-(1′-(3-(1,3-dimethyl-1H-pyrazol-4-yl)benzyl)-6-oxo-6,8-dihydro-2H,7H-spiro[furo[2,3-e]isoindole-3,4′-piperidin]-7-yl)piperidine-2,6-dione]	50 to 200 nM	60 to 80%
O=C1CC[C@H](N2Cc3c(ccc4c3OCC43CCN(Cc4cccc(-c5cnn(C6COC6)c5)c4)CC3)C2=O)C(=O)N1 [Compound A265, (S)-3-(1′-(3-(1-(oxetan-3-yl)-1H-pyrazol-4-yl)benzyl)-6-oxo-6,8-dihydro-2H,7H-spiro[furo[2,3-e]isoindole-3,4′-piperidin]-7-yl)piperidine-2,6-dione]	< 50 nM	60 to 80%
O=C1CCC(N2Cc3c(ccc4c3OCC43CCN(Cc4ccc(S(=O)(=O)c5ccccc5)cc4)CC3)C2=O)C(=O)N1 (stereo not drawn) [Compound A340, 3-(6-oxo-1′-(4-(phenylsulfonyl)benzyl)-6,8-dihydro-2H,7H-spiro[furo[2,3-e]isoindole-3,4′-piperidin]-7-yl)piperidine-2,6-dione]	> 500 nM	40 to 60%
O=C1CCC(N2Cc3c(ccc4c3OCC43CCN(Cc4ccc(F)cc4Cl)CC3)C2=O)C(=O)N1 (stereo not drawn) [Compound A6, 3-(1′-(2-chloro-4-fluorobenzyl)-6-oxo-6,8-dihydro-2H,7H-spiro[furo[2,3-e]isoindoline-3,4′-piperidin]-7-yl)piperidine-2,6-dione]	> 500 nM	< 40%
O=C1CC[C@H](N2Cc3c(ccc4c3OCC43CCN(Cc4cnn(-c5ccc(C(F)(F)F)cc5)c4)CC3)C2=O)C(=O)N1 [Compound A360, (S)-3-(6-oxo-1′-((1-(4-(trifluoromethyl)phenyl)-1H-pyrazol-4-yl)methyl)-6,8-dihydro-2H,7H-spiro[furo[2,3-e]isoindole-3,4′-piperidin]-7-yl)piperidine-2,6-dione]	< 50 nM	60 to 80%
O=C1CCC(N2Cc3c(ccc4c3OCC43CCN(Cc4csc(-c5ccccc5)n4)CC3)C2=O)C(=O)N1 (stereo not drawn) [Compound A82, 3-(6-oxo-1′-((2-phenylthiazol-4-yl)methyl)-6,8-dihydro-2H,7H-spiro[furo[2,3-e]isoindole-3,4′-piperidin]-7-yl)piperidine-2,6-dione]	> 500 nM	< 40%
O=C1CCC(N2Cc3c(ccc4c3OCC43CCN(Cc4c(F)ccc5occc45)CC3)C2=O)C(=O)N1 (stereo not drawn) [Compound A223, 3-(1′-((5-fluorobenzofuran-4-yl)methyl)-6-oxo-6,8-dihydro-2H,7H-spiro[furo[2,3-e]isoindole-3,4′-piperidin]-7-yl)piperidine-2,6-dione]	200 to 500 nM	40 to 60%
O=C1CC[C@H](N2Cc3c(ccc4c3OCC43CCN(Cc4ccccc4)CC3)C2=O)C(=O)N1 [Compound A317, (S)-3-(1′-benzyl-6-oxo-6,8-dihydro-2H,7H-spiro[furo[2,3-e]isoindole-3,4′-piperidin]-7-yl)piperidine-2,6-dione]	200 to 500 nM	40 to 60%
O=C1CCC(N2Cc3c(ccc4c3OCC43CCN(Cc4cnn(CC5COC5)c4)CC3)C2=O)C(=O)N1 (stereo not drawn) [Compound A319, 3-(1′-((1-(oxetan-3-ylmethyl)-1H-pyrazol-4-yl)methyl)-6-oxo-6,8-dihydro-2H,7H-spiro[furo[2,3-e]isoindole-3,4′-piperidin]-7-yl)piperidine-2,6-dione]	> 500 nM	< 40%
O=C1CCC(N2Cc3c(ccc4c3OCC43CCN(Cc4ccn(-c5ccc(Cl)cc5)n4)CC3)C2=O)C(=O)N1 (stereo not drawn) [Compound A243, 3-(1′-((1-(4-chlorophenyl)-1H-pyrazol-3-yl)methyl)-6-oxo-6,8-dihydro-2H,7H-spiro[furo[2,3-e]isoindole-3,4′-piperidin]-7-yl)piperidine-2,6-dione]	50 to 200 nM	60 to 80%
O=C1CCC(N2Cc3c(ccc4c3OCC43CCN(Cc4cnn(-c5ccccc5F)c4)CC3)C2=O)C(=O)N1 (stereo not drawn) [Compound A310, 3-(1′-((1-(2-fluorophenyl)-1H-pyrazol-4-yl)methyl)-6-oxo-6,8-dihydro-2H,7H-spiro[furo[2,3-e]isoindole-3,4′-piperidin]-7-yl)piperidine-2,6-dione]	> 500 nM	< 40%
O=C1CCC(N2Cc3c(ccc4c3OCC43CCN(Cc4cnn(-c5ccc(F)cc5)c4)CC3)C2=O)C(=O)N1 (stereo not drawn) [Compound A312, 3-(1′-((1-(4-fluorophenyl)-1H-pyrazol-4-yl)methyl)-6-oxo-6,8-dihydro-2H,7H-spiro[furo[2,3-e]isoindole-3,4′-piperidin]-7-yl)piperidine-2,6-dione]	> 500 nM	40 to 60%
